Source: patent US20250339359A1, “PEPTIDE HAVING ACTIVITY OF IMPROVING STATE OF SKIN, AND USE THEREOF” (CAREGEN CO., LTD., priority 2021, published 2025)

Legend:
NIH3T3 cells [1] = test: Proliferation of skin cells (SRB staining), NIH3T3; format: cell-based, mouse; conditions: 50 µM or 100 µM peptide, 72 hours, serum-free DMEM, FIG. 1A
Protocol: (§1) In this example, the aim was to confirm the effect of a peptide according to an example on proliferation of skin cells, by evaluating changes in survival rate of NIH3T3 cells, which are mouse fibroblasts, or HaCaT cells, which are human keratinocytes.
(§2) Specifically, NIH3T3 cells or HaCaT cells were seeded in a 96-well plate at a density of 5×10^3 cells/well and cultured for 24 hours. The cells were then washed once with serum-free DMEM media, and the culture medium was replaced with serum-free DMEM media. Then, 50 µM or 100 µM of the peptide consisting of the amino acid sequence of SEQ ID NO: 1 was dispensed into the medium, and cultured in a CO2 incubator at 37° C. for 72 hours. The culture was then washed twice with PBS and treated with 4% paraformaldehyde (PFA) solution for 15 minutes to fix the cultured cells. The culture was then washed twice with distilled water, treated with SRB solution for 1 hour to stain the cells, washed with 1% acetic acid solution, and dried. The dried culture was then dissolved in 20 mM Tris buffer solution and the absorbance at 560 nm was measured using a microplate reader (Molecular Devices, USA). In this example, the untreated group was used as the control group, and the group to which insulin-like growth factor was added (IGF) was used as the positive control group.

HaCaT cells [2] = test: Proliferation of skin cells (SRB staining), HaCaT; format: cell-based, human; conditions: 50 µM or 100 µM peptide, 72 hours, serum-free DMEM, FIG. 1B
Protocol: as §1, §2

collagen type 1 (Col1a1) = test: Expression of Col1a1 in NIH3T3 cells (RT-PCR); format: cell-based, mouse; conditions: 50 µM or 100 µM peptide, 24 hours, FIG. 2, FIG. 3A
Protocol: (§3) In this example, the aim was to confirm the effect of the peptide according to an example on improving endogenous skin aging, including improvement of wrinkles and enhancement of elasticity, etc., by evaluating the expression levels of collagen type 1 (Col1a1), fibronectin, or elastin, which are known components of the dermis.
(§4) Specifically, NIH3T3 cells were seeded in a 6-well plate at a density of 3×10^5 cells/well and cultured for 24 hours. The cells were then washed once with serum-free DMEM media, and the culture medium was replaced with serum-free DMEM media. Thereafter, 50 µM or 100 µM of the peptide consisting of the amino acid sequence of SEQ ID NO: 1 was dispensed into the medium, and cultured in a CO2 incubator at 37° C. for 24 hours. The culture was then washed twice with PBS, and RNA was isolated from the culture using easy blue (iNtRON, Korea). Using an RT kit (Enzynomics, Korea), 1 μg of the isolated RNA was reverse transcribed to synthesize the respective cDNA. Polymerase chain reaction (PCR) was then performed using the cDNAs and primers Col1a1, fibronectin, and elastin. Meanwhile, the untreated group was used as the control group, and the group to which TGF-β1 was added (TGF-β1) was used as the positive control group, the nucleotide sequences of the primers used in this example are shown in Table 2 below.

fibronectin = test: Expression of fibronectin in NIH3T3 cells (RT-PCR); format: cell-based, mouse; conditions: 50 µM or 100 µM peptide, 24 hours, FIG. 2, FIG. 3B
Protocol: as §3, §4

elastin = test: Expression of elastin in NIH3T3 cells (RT-PCR); format: cell-based, mouse; conditions: 50 µM or 100 µM peptide, 24 hours, FIG. 2, FIG. 3C
Protocol: as §3, §4

sirtuin-1 (SIRT-1) = test: Expression of SIRT-1 in HaCaT cells (RT-PCR); format: cell-based, human; conditions: 50 µM or 100 µM peptide, 24 hours, FIG. 4, FIG. 5A
Protocol: (§5) In this example, the aim was to confirm the effect of the peptides according to an example on skin barrier defense, by evaluating the expression levels of sirtuin-1 (SIRT-1) or aquaporin-3 (AQP3).
(§6) Specifically, HaCaT cells were seeded in a 6-well plate at a density of 3×10^5 cells/well and cultured for 24 hours. The cells were then washed once with serum-free DMEM media, and the culture medium was replaced with serum-free DMEM media. Thereafter, 50 µM or 100 µM of the peptide consisting of the amino acid sequence of SEQ ID NO: 1 was dispensed into the medium, and cultured in a CO2 incubator at 37° C. for 24 hours. The culture was then washed twice with PBS, and RNA was isolated from the culture using easy blue (iNtRON, Korea). Using the RT kit (Enzynomics, Korea), 1 μg of the isolated RNA was reverse transcribed to synthesize the respective cDNA. Polymerase chain reaction was then performed using the cDNAs and primers sirtuin-1 and aquaporin-3. Meanwhile, the untreated group was used as the control group, and the group to which EGF was added (EGF) was used as the positive control group, the nucleotide sequences of the primers used in this example are shown in Table 3 below.

aquaporin-3 (AQP3) = test: Expression of AQP3 in HaCaT cells (RT-PCR); format: cell-based, human; conditions: 50 µM or 100 µM peptide, 24 hours, FIG. 4, FIG. 5B
Protocol: as §5, §6

NIH3T3 cells [3] = test: Survival rate after ultraviolet-induced apoptosis (SRB), NIH3T3; format: cell-based, mouse; conditions: 6 J/cm2 ultraviolet rays, 50 µM or 100 µM peptide, 72 hours, FIG. 6A
Protocol: (§7) In this example, the aim was to confirm the effect of the peptide according to an example on the inhibition of apoptosis or cell recovery of skin cells induced by ultraviolet rays, by evaluating the change in survival rate of skin cells whose apoptosis was induced by ultraviolet irradiation.
(§8) Specifically, NIH3T3 cells or HaCaT cells were seeded in a 96-well plate at a density of 1×10^4 cells/well and cultured for 24 hours. The cells were then washed once with serum-free DMEM media, the culture medium was replaced with serum-free DMEM media, and 50 µM or 100 µM of the peptide consisting of the amino acid sequence of SEQ ID NO: 1 was dispensed to the culture medium. The culture medium dispensed with the peptide was cultured in a CO2 incubator at 37° C. for 1 hour, transferred to an e-tube, mixed with 100 ul of PBS, and dispensed into a well plate. Afterwards, using a UV irradiator (VILBER LOURMAT, France), 6 J/cm2 ultraviolet rays were irradiated to NIH3T3 cells, and 15 m J/cm2 ultraviolet rays were irradiated to HaCaT cells. The PBS in the well plate was then removed, 900 μL of the culture medium in which the peptides were dispensed was added, and the plate was cultured in a CO2 incubator at 37° C. for 72 hours. […] The dried culture was then dissolved in 20 mM Tris buffer solution and the absorbance at 560 nm was measured using a microplate reader (Molecular Devices, USA). […]

HaCaT cells [4] = test: Survival rate after ultraviolet-induced apoptosis (SRB), HaCaT; format: cell-based, human; conditions: 15 m J/cm2 ultraviolet rays, 50 µM or 100 µM peptide, 72 hours, FIG. 6B
Protocol: as §7, §8

NIH3T3 cells [5] = test: Reactive oxygen species level after ultraviolet irradiation (DCF-DA, FACS), NIH3T3; format: cell-based, mouse; conditions: 6 J/cm2 ultraviolet rays, 50 µM or 100 µM peptide, 24 hours, FIG. 7A
Protocol: (§9) In this example, the aim was to confirm the effect of the peptide according to an embodiment on the antioxidant effect of skin cells induced by ultraviolet rays, by evaluating the level of reactive oxygen species in skin cells increased by ultraviolet irradiation.
as §8, with “6-well” for “96-well”, “5×10^5” for “1×10^4”, “24” for “72”, “After washing” for “The dried culture was then dissolved in 20 mM Tris buffer solution and”, “centrifuged cells with PBS, FL1 fluorescence values were” for “absorbance at 560 nm was”, “through flow cytometry (FACS, BD,” for “using a microplate reader (Molecular Devices,”

HaCaT cells [6] = test: Reactive oxygen species level after ultraviolet irradiation (DCF-DA, FACS), HaCaT; format: cell-based, human; conditions: 15 m J/cm2 ultraviolet rays, 50 µM or 100 µM peptide, 24 hours, FIG. 7B
Protocol: as §9
as §8, with “6-well” for “96-well”, “5×10^5” for “1×10^4”, “24” for “72”, “After washing” for “The dried culture was then dissolved in 20 mM Tris buffer solution and”, “centrifuged cells with PBS, FL1 fluorescence values were” for “absorbance at 560 nm was”, “through flow cytometry (FACS, BD,” for “using a microplate reader (Molecular Devices,”

EALKYWYEN (Peptide 1) [SEQ ID NO: 1]
proliferation of fibroblasts (NIH3T3 cells [1]): promoted
proliferation of keratinocytes (HaCaT cells [2]): promoted
expression of Col1a1 (collagen type 1 (Col1a1)): increased
expression of fibronectin (fibronectin): increased
expression of elastin (elastin): increased
expression of SIRT-1 (sirtuin-1 (SIRT-1)): increased
expression of AQP3 (aquaporin-3 (AQP3)): increased
cell survival rate of fibroblasts reduced by ultraviolet irradiation (NIH3T3 cells [3]): restored
cell survival rate of keratinocytes reduced by ultraviolet irradiation (HaCaT cells [4]): restored
level of reactive oxygen species in fibroblasts increased by ultraviolet irradiation (NIH3T3 cells [5]): reduced
level of reactive oxygen species in keratinocytes increased by ultraviolet irradiation (HaCaT cells [6]): reduced
